US20260167629A1, “NOVEL INDAZOLE DERIVATIVE OR PHARMACEUTICALLY ACCEPTABLE SALT THEREOF, AND USE THEREOF” (KOREA UNIVERSITY RESEARCH AND BUSINESS FOUNDATION, priority 2022, published 2026)

Key:
[1] = tested on: cleaved caspase-3, cleaved caspase-7, PARP in JIMT-1 cell line; assay: Western blotting of apoptosis-related proteins, JIMT-1; type: cell-based; conditions: JIMT-1, 10 μM, 72 hours; for amounts of cleaved caspase-3 and cleaved caspase-7: compared to the control group
Method: To investigate the mechanism of cell death by compound 18c (formula 1-16) and compound 11k (formula 1-7), the activation of apoptosis-related factor caspase family members was determined through western blotting.
(§1) To perform western blotting, BT-474 and JIMT-1 cell lines were treated with control (DMSO), compound 18c, and compound 11k at concentrations of 10 μM each for 72 hours, and then lysed in lysis buffer (30 mM NaCl, 0.5% Triton X-100, 50 mM Tris-HCl; pH 7.4) containing phosphatase and protease inhibitors. The proteins present in the supernatant were harvested. The protein concentration was measured using a Bradford protein assay kit, and 30 μg of protein was taken equally from each experimental group. These proteins were electrophoresed on SDS-Polyacrylamide gels (8-15%), and electrically transferred to a nitrocellulose membrane. The membrane was reacted with primary antibodies [pro PARP (1:1000), cleaved PARP (1:2000), cleaved caspase-3 (1:1000), cleaved caspase-7 (1:1000), β-actin (1:5000)] diluted in 5% bovine serum albumin (BSA) at 4° C. for 24 hours, followed by a secondary antibody, horseradish peroxidase (HRP)-conjugated rabbit IgG (1:3000) for 2 hours at room temperature. The signal intensity of the above proteins was checked by color development using an Enhanced Chemiluminescence Kit and x-ray film.

[2] = tested on: BT474 breast cancer cell line; assay: Flow cytometry DNA content (PI), cell cycle arrest and cell death, BT474; type: cell-based; conditions: BT474, 5 and 10 μM, 72 hours, flow cytometer
Method: (§2) The degree of cancer cell death by the indazole derivative of the present disclosure was measured by analyzing DNA content using a flow cytometer. Cells were treated with compound 18c (formula 1-16) and compound 11k (formula 1-7) at concentrations of 0 (DMSO), 5, and 10 μM for 72 hours, and then the cells were harvested. Thereafter, the cells were fixed with 95% ethanol containing 0.5% Tween-20 for 24 hours, and stained with propidium iodide (PI, 50 μg/mL) and RNase (50 μg/mL) for 30 minutes. Afterwards, the degree of cancer cell death was analyzed using a flow cytometer.
(§3) In general, the cell cycle is divided into G1 (cell growth phase)—S(cell replication phase)—G2/M (cell division phase) according to the content of intracellular DNA. […] The results of this cell death within the cell cycle are manifested by the Sub-G1 region, and the percentage of Sub-G1 induced by the indazole derivative of the present disclosure is shown numerically in FIGS. 5B and 6B.

[3] = tested on: JIMT-1 breast cancer cell line; assay: Flow cytometry DNA content (PI), cell cycle arrest and cell death, JIMT-1; type: cell-based; conditions: JIMT-1, 5 and 10 μM, 72 hours, flow cytometer
Method: as §2, §3

[4] = Toxicity in JIMT-1 xenograft mice (body weight, H&E of liver, kidney, lung, AST, ALT, BUN); type: in vivo, Balb/c nude mice; conditions: intraperitoneally, 30 mg/kg compound 18c or 20 mg/kg compound 11k
Method: (§4) 6-week-old mice (Balb/c nude mice) were purchased and raised in an environment where they could freely access food and water. The mice were acclimated for more than 7 days, and then were transplanted with tumor cells. Tumor cells were injected subcutaneously into the mammary gland tissue of JIMT-1 breast cancer cells at a density of 3×10^6 cells/mL per individual, and when the tumor reached a size of 50 to 100 mm^3, the indazole derivative of the present disclosure was administered intraperitoneally, and the tumor growth was measured. The experimental groups were treated with either 30 mg/kg of compound 18c (formula 1-16) or 20 mg/kg of compound 11k (formula 1-7), and tumor volume, tumor weight, body weight, and the like were measured every 3 to 4 days from the time of administration until the end of the study.
To determine whether the treatment with the indazole derivatives of the present disclosure would affect normal organs, a toxicity analysis was performed.
The mouse model was sacrificed. The liver, kidney, and lung tissues were fixed in 4% paraformaldehyde for 24 hours, washed in PBS buffer, and then embedded in paraffin. Tissue samples were sectioned and stained with H&E (hematoxylin & eosin). […]

[5] = tested on: JIMT-1 breast cancer cell line xenograft; assay: Tumor growth in xenograft mouse model transplanted with JIMT-1; type: in vivo, Balb/c nude mice; conditions: intraperitoneally, 30 mg/kg compound 18c or 20 mg/kg compound 11k; for tumor volume / tumor weight: compared to the control group
Method: This experiment was performed in an in vivo environment using a xenograft mouse model transplanted with the JIMT-1 breast cancer cell line.
as §4

JIMT-1 cell line = assay: MTS cell viability assay in JIMT-1 cell line; type: cell-based; conditions: Homo sapiens, JIMT-1, 72 hours
Method: The control group was treated with DMSO as an untreated group (0 μM) of the indazole derivative of the present disclosure.
Specifically, cells were attached to 96 well plates for 24 hours, and then treated with the indazole derivatives for 72 hours. Thereafter, the cells were chromogenized with MTS for 4 hours, and the absorbance was measured at 490 nm using a Spectramax Plus384 microplate analyzer.
HER2 positive breast cancer (HER2+BC) cell lines, BT474 (cell seeding numbers: 2.4 (BT474)×10^4 cells/wells (confluency≥50%)) sensitive to trastuzumab and JIMT-1 (cell seeding numbers: 1.0 (JIMT-1)×10^4 cells/wells (confluency>30%)) resistant to trastuzumab were used in the experiment.
In this case, the cell lines were treated with the benzopyran derivative at a concentration of 10 μM for 72 hours and the cell lines were treated with the indazole derivative at a concentration of 10 μM for 72 hours, and then the cell viability was measured.

[6] = tested on: Hsp90 clients in BT474 cell line; assay: Western blotting of Hsp90 clients, BT474; type: cell-based; conditions: BT474, 10 μM, 72 hours
Method: as §1
Western blotting was used to investigate whether Hsp90 inhibitors, compound 18c (formula 1-16) and compound 11k (formula 1-7), could downregulate the expression and activity (phosphorylation) of HER2 and HER3, which are representative clients of Hsp90, in BT474 and JIMT-1 cell lines. The expression of Akt, MEK, ERK, Bcl-2, Cyclin D1, and Survivin, which are key factors for cell survival as Hsp90 clients, was also investigated. The western blotting was performed by the method that was used in Experimental Example 2.3.
The BT474 and JIMT-1 cell lines were treated with compound 18c and compound 11k at a concentration of 10 μM for 72 hours.

| Compound | cleaved-PARP (89 kDa) [1] | amounts of cleaved caspase-3 and cleaved caspase-7 [1] | G2/M phase of the cell cycle [2] | cell death (Sub-G1 population) [2] | G2/M phase of the cell cycle [3] | cell death (Sub-G1 population) [3] | body weight [4] | tumor size (visual inspection) [5] | tumor volume [5] | tumor weight [5] | IC50 (JIMT-1 cell line) [µM] | expression of HER2 and HER3 [6] | expression of activated forms phospho-HER2 and phospho-HER3 [6] | expression of cell proliferation factors Akt, MEK, ERK, Bcl-2, Cyclin D1, and Survivin [6] |
| --- | --- | --- | --- | --- | --- | --- | --- | --- | --- | --- | --- | --- | --- | --- |
| COc1c(C(=O)Nc2ccc3c(C)nn(CCC4CCN(C)CC4)c3c2)ccc2c1C=CC(C)(C)O2 [compound 11k, 5-Methoxy-2,2-dimethyl-N-(3-methyl-1-(2-(1-methylpiperidin-4-yl)ethyl)-1H-indazol-6-yl)-2H-chromene-6-carboxamide] | increase | significantly increased | arrested the G2/M phase | significantly induced cell death | arrested the G2/M phase | significantly induced cell death | maintained | reduced by more than half | significantly reduced | significantly reduced | 4.06 | decreased | significantly reduced | inhibited the expression |
| COCCn1nc(NC(=O)c2ccc3c(c2OC)C=CC(C)(C)O3)c2ccccc21 [compound 18c, 5-Methoxy-N-(1-(2-methoxyethyl)-1H-indazol-3-yl)-2,2-dimethyl-2H-chromene-6-carboxamide] | increase | significantly increased | arrested the G2/M phase | significantly induced cell death | arrested the G2/M phase | significantly induced cell death | maintained | reduced by more than half | significantly reduced | significantly reduced | 4.6 | decreased | significantly reduced | inhibited the expression |
